From patent EP4644389A1, “PRMT5-MTA INHIBITOR” (Suzhou Puhe Biopharma Co., Ltd., priority 2022, dated 2024) come the findings set out here.

Where two headings read alike, the source gives them in different places. A value given as a limit tells only on which side of the number the result lay.

Experiment [1] has as its system HCT116-MTAPwt. Nature of the experiment: 2D anti-proliferation assay (CTG luminescence), wild-type HCT116 cells. As to conditions: Homo sapiens, HCT-116, 7-10 days incubation. The format is cell-based. Here is the method:
By testing the activity of both of them, the inhibitory effect and selectivity of the molecules of the present invention for PRMT5 at the cellular level were shown.
(§1) HCT116 wild-type and MTAP-deficient cells were cultured in MCCOYS 5A medium containing 10% FBS and 1% penicillin-streptomycin and incubated in a 37°C, 5% CO2 incubator. A 40 µL cell suspension was added to each well of a 384-well microplate. Using Echo, 40 nL of the compound at different concentrations were added to each well, followed by incubation in a 37°C, 5% CO2 incubator for 7-10 days. 40 µL of CTG solution (Promega, Cat No. G7573) was added to each well and incubated away from light in a 37°C, 5% CO2 incubator for 30 minutes. Luminescence was measured using an Envision multimode plate reader (Perkin Elmer, Catalog No. Envision 2104). The luminescence signal was proportional to the ATP content in the system, and the ATP content directly reflected the number of viable cells in the system.
ICso value calculation: [formula] • X: Log value of compound concentration • Y: Inhibition rate (%) Table 1: 2D Anti-proliferation Effects of Compounds on HTC116-MTAP del and Wild-type Colorectal Cancer HCT-116 Cell Lines.

Experiment [2] deals with HCT116-MTAPdel. Nature of the experiment: 2D anti-proliferation assay (CTG luminescence), MTAP-deficient HCT116 cells. As to conditions: for IC50: Homo sapiens; for HCT116 WT/MTAPdel Selectivity: ratio of IC50 HCT116 WT / MTAPdel. The format is cell-based. The method, then:
as §1

The mark [3] stands for this setting: HCT-116, HCT116 MTAP-deficient cells, 7-10 days incubation, CTG, read-out: HCT116-MTAPdel/IC50/nM.

With `Cc1c(CO)c(N)nc2cc(Cl)c(C(=O)N3[C@H](C)COC[C@@H]3c3ccc(C(F)(F)F)cn3)cc12` [Compound A2b], the results for the IC50 in experiment [1] and in experiment [2] (setting [3]) were 398 nM and 4 nM, respectively. The “HCT116 WT/MTAPdel Selectivity” value in experiment [2] was 100.
`Cc1c(CO)c(N)nc2cc(F)c(C(=O)N3C(C)COCC3c3ccc(-c4cncc(Cl)c4)cn3)cc12` (racemic) [Compound A4]: the IC50 in experiment [1] came out at 1140 nM; in experiment [2] (setting [3]), 7 nM. In addition, the “HCT116 WT/MTAPdel Selectivity” value in experiment [2] came out at 164.
On to `Cc1c(C2CC2)c(N)nc2cc(Cl)c(C(=O)N(C)C3COCc4nc(C(F)(F)F)ccc43)cc12` (stereo not drawn) [Compound H7], for which the results for the IC50 in experiment [1] and in experiment [2] (setting [3]) were 1110 nM and 29 nM, respectively. In experiment [2], the “HCT116 WT/MTAPdel Selectivity” value was 38.
Turning to `CC(=O)N1CCC(Nc2cc(C(=O)NC[C@H](O)CN3CCc4ccccc4C3)ncn2)CC1` [GSK3326595, reference compound], the IC50 was 72 nM in experiment [1] and 17 nM in experiment [2] (setting [3]). Moreover, the “HCT116 WT/MTAPdel Selectivity” value in experiment [2] worked out at 4.
Turning to `Nc1nc2cc(F)c(C(=O)N3CCOCC3c3ccc(C(F)(F)F)cn3)cc2cc1C1CC1` (stereo not drawn) [Compound P3], the IC50 in experiment [1] was over 10000 nM; in experiment [2] (setting [3]) it was 2870 nM. The “HCT116 WT/MTAPdel Selectivity” value in experiment [2] is recorded as over 4.
For `CN(C(=O)c1ccc2nc(N)c(C3CC3)cc2c1)C1COc2cc(C(F)(F)F)ccc21` (racemic) [Compound H1] the same measures were over 10000 nM, 4250 nM and over 2.
`C[C@H]1COC[C@@H](c2ccc(OC(F)F)nn2)N1C(=O)c1cc2cc(C3CC3)c(N)nc2cc1F` [Compound P8]: the IC50 was over 10000 nM in experiment [1] and 96 nM in experiment [2] (setting [3]). Besides, in experiment [2], the “HCT116 WT/MTAPdel Selectivity” value is reported as over 104.
As to `Cc1c(CO)c(N)nc2cc(F)c(C(=O)N3CC(C)CCC3c3ccc4ncsc4c3)cc12` (racemic) [Compound A8], the IC50 in experiment [1] stood at 2000 nM; in experiment [2] (setting [3]), 150 nM. For the same molecule, in experiment [2], the “HCT116 WT/MTAPdel Selectivity” value worked out at 13.
Take `Cc1cc2cc(C(=O)N(Cc3ccc(C(F)(F)F)cn3)[C@H](C)c3ncccn3)ccc2nc1N` [AM9747, reference compound]: the IC50 was 237 nM in experiment [1] and 7 nM in experiment [2] (HCT-116, read-out: HCT116-MTAPdel/IC50/nM).
For `CN(C(=O)c1ccc2nc(N)c(C3CC3)cc2c1)C1COc2cc(OC(F)(F)F)ccc21` (stereo not drawn) [Compound H2], the IC50 is over 10000 nM in experiment [1] and 6290 nM in experiment [2] (setting [3]). Besides, the “HCT116 WT/MTAPdel Selectivity” value in experiment [2] is over 1.
For `Cc1c(C2CC2)c(N)nc2cc(F)c(C(=O)N(C)C3COCc4nc(C(F)(F)F)ccc43)cc12` (stereo not drawn) [Compound H6] the same measures were 532 nM, 33 nM and 16.
For `CN(C(=O)c1ccc2nc(N)c(C3CC3)cc2c1)C1COc2cc(-c3cnn(C(F)(F)F)c3)ccc21` (stereo not drawn) [Compound H5] the same measures were 8020 nM, 2960 nM and 3.
Consider `Cc1c(CO)c(N)nc2cc(F)c(C(=O)N3C(C)COCC3c3ccc(OC(F)(F)F)cc3)cc12` (racemic) [Compound A5], for which the IC50 in experiment [1] was 1360 nM; in experiment [2] (setting [3]), 18 nM. Also, in experiment [2], the “HCT116 WT/MTAPdel Selectivity” value is reported as 75.
Take `Cc1c(CO)c(N)nc2cc(Cl)c(C(=O)N3[C@@H](C)COC[C@H]3c3ccc(C(F)(F)F)cn3)cc12` [Compound A2a]: the IC50 in experiment [1] was over 10000 nM; in experiment [2] (setting [3]) it was 3030 nM. For the same molecule, the “HCT116 WT/MTAPdel Selectivity” value in experiment [2] is on record as over 3.
For `Cc1c(C2CC2)c(N)nc2cc(Cl)c(C(=O)N3[C@H](C)COC[C@@H]3c3ccc(C(F)(F)F)cn3)cc12` [Compound P7a] the same measures were 1640 nM, 230 nM and 7.
In the case of `C[C@H]1COC[C@@H](c2ccc(OC(F)(F)F)cc2)N1C(=O)c1cc2cc(C3CC3)c(N)nc2cc1Cl` [Compound P6], the IC50 in experiment [2] (setting [3]) amounted to 156 nM.
